Key:
Assay type in all cases: cell-based
hPPARδ/β = target: T1, hPPARδ/β (Homo sapiens, UniProt Q03181); assay: GAL4-LBD UAS-luciferase reporter in HEK293
T1 construct: gene PPARD; GAL4-hPPARδ LBD fusion
T1 sequence (Q03181 171-441 limits assumed): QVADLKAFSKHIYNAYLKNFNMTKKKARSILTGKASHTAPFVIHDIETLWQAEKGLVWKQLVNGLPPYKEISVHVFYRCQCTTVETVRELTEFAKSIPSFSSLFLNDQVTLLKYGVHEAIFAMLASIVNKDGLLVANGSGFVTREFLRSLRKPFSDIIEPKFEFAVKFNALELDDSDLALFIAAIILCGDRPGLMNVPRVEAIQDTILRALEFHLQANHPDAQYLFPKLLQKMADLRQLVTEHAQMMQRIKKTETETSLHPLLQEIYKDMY

PPARγ = target: T2, PPARγ (Homo sapiens, UniProt P37231); assay: antagonism of the human PPARγ LBD ligand-trap GFP reporter in transgenic zebrafish
T2 construct: gene PPARG; PPARγ (aa 189-477) LBD fusion
T2 sequence (P37231 217-505): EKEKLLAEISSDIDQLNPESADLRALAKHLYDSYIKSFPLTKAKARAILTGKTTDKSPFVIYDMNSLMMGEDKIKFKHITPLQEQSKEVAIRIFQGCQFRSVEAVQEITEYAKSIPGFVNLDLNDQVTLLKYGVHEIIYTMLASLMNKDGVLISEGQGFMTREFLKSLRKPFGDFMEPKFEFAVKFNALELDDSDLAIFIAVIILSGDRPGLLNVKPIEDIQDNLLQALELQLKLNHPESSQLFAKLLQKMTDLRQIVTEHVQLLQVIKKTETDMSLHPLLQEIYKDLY

PPARα = target: T3, PPARα (Homo sapiens, UniProt Q07869); assay: co-purification with purified LBD and LC-MS; EC50 from GAL4-LBD luciferase reporter in HEK293
T3 construct: gene PPARA; His-tagged PPARα LBD
T3 sequence (Q07869 196-468 limits assumed): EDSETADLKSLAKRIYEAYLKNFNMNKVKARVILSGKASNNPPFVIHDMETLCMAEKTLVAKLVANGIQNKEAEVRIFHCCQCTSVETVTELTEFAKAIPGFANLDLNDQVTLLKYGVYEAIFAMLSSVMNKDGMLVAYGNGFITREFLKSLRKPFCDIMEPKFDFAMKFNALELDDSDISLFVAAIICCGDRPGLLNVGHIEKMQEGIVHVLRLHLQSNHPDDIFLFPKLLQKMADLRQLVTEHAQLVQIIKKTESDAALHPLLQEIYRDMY

SMILES: O=C(O)COc1ccc(SCC=C(c2ccc(Br)cc2)c2ccc(Br)cc2)cc1Cl [CAY10592]
- EC50 (hPPARδ/β): 12.8 nM

SMILES: O=C(Nc1ccccc1)c1cc([N+](=O)[O-])ccc1Cl [GW9662]
- antagonism of the human PPARγ LBD ligand-trap GFP reporter in transgenic zebrafi (PPARγ): The GW9662 suicide antagonist blocks agonist activity of rosiglitazone and idebenone, but not of RA

SMILES: COC1=C(OC)C(=O)C(CCCCCCCCCCO)=C(C)C1=O [idebenone]
- EC50 (PPARα): 2500 nM

Reference: PMC6177011, “Idebenone and coenzyme Q10 are novel PPARα/γ ligands, with potential for treatment of fatty liver diseases” (Disease Models & Mechanisms, 2018)
